Laboratory results as given in patent publication US20260183402A1, “NUTRITIONAL COMPOSITION” (priority 2010, published 2026).
Like-named read-outs stand apart in the source and are kept apart here.

Conditions: normal human subjects, measured over 24 hours

C[C@@H](O)CCOC(=O)C[C@@H](C)O [D-β-hydroxybutyrate-R 1,3-butanediol monoester]
maximum plasma ketone concentration (single dose 140 mg/kg ketone ester in milk-based drink): 0.23 mM | maximum plasma ketone concentration (single dose 357 mg/kg ketone ester in milk-based drink): 0.76 mM | maximum plasma ketone concentration (single dose 714 mg/kg ketone ester in milk-based drink): 3.42 mM
